We go through three molecules from patent US9409916B2, “Piperidinone carboxamide spirohydantoin CGRP receptor antagonists” (Merck Sharp & Dohme Corp., priority 2011, dated 2016).

For the assay, the target named is T1, recombinant human CL receptor/RAMP1 (Homo sapiens, UniProt O60894+Q16602).
T1 construct: expressed in transfected cells; membranes
Nature of the assay: Recombinant receptor binding assay (125I-hCGRP). The note with it: membranes of HEK 293 cells expressing human CL receptor/RAMP1, 10 pM 125I-hCGRP. As to the method: RECOMBINANT RECEPTOR: Human CL receptor (Genbank accession number L76380) was subcloned into the expression vector pIREShyg2 (BD Biosciences Clontech) as a 5′NheI and 3′ PmeI fragment. Human RAMP1 (Genbank accession number AJ001014) was subcloned into the expression vector pIRESpuro2 (BD Biosciences Clontech) as a 5′NheI and 3′NotI fragment. HEK 293 cells (human embryonic kidney cells; ATCC #CRL-1573) were cultured in DMEM with 4.5 g/L glucose, 1 mM sodium pyruvate and 2 mM glutamine supplemented with 10% fetal bovine serum (FBS), 100 units/mL penicillin and 100 μg/mL streptomycin, and maintained at 37° C. and 95% humidity. Cells were subcultured by treatment with 0.25% trypsin with 0.1% EDTA in HBSS. Stable cell line generation was accomplished by co-transfecting 10 μg of DNA with 30 μg Lipofectamine 2000 (Invitrogen) in 75 cm^2 flasks. CL receptor and RAMP1 expression constructs were co-transfected in equal amounts. Twenty-four hours after transfection the cells were diluted and selective medium (growth medium+300 μg/mL hygromycin and 1 μg/mL puromycin) was added the following day. A clonal cell line was generated by single cell deposition utilizing a FACS Vantage SE (Becton Dickinson). Growth medium was adjusted to 150 μg/mL hygromycin and 0.5 μg/mL puromycin for cell propagation.
RECOMBINANT RECEPTOR BINDING ASSAY: Cells expressing recombinant human CL receptor/RAMP1 were washed with PBS and harvested in harvest buffer containing 50 mM HEPES, 1 mM EDTA and Complete™ protease inhibitors (Roche). The cell suspension was disrupted with a laboratory homogenizer and centrifuged at 48,000 g to isolate membranes. The pellets were resuspended in harvest buffer plus 250 mM sucrose and stored at −70° C. For binding assays, 20 μg of membranes were incubated in 1 mL binding buffer (10 mM HEPES, pH 7.4, 5 mM MgCl2, and 0.2% BSA) for 3 h at room temperature containing 10 pM ^125I-hCGRP (GE Healthcare) and antagonist. The assay was terminated by filtration through 96-well GFB glass fiber filter plates (PerkinElmer) that had been blocked with 0.05% polyethyleneimine. […]

T1 sequence (Q16602 23-461): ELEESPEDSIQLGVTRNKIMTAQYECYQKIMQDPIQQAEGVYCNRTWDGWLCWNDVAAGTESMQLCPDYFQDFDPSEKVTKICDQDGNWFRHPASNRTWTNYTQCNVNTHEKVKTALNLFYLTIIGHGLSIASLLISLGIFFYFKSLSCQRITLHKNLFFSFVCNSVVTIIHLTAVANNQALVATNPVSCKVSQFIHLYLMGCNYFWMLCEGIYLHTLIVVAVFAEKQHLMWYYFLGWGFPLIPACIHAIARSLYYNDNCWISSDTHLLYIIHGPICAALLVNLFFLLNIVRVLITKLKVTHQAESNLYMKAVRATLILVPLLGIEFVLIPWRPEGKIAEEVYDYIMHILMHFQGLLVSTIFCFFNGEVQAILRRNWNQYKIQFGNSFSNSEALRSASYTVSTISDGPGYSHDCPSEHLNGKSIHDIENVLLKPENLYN
T1 sequence (O60894 27-148): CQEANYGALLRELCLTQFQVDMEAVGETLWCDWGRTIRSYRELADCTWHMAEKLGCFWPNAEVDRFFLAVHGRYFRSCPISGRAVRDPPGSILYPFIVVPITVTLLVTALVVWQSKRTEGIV

The term Ki denotes the equilibrium dissociation constant of an inhibitor or competing ligand from its target. Take `C[C@@H]1[C@H](c2c(F)ccc(F)c2F)C[C@H](NC(=O)c2cnc3c(c2)C[C@@]2(C3)C(=O)NC(=O)N2C)C(=O)N1CC(F)(F)F` [Example 1, (6R)-3′-Methyl-N-[(3S,5S,6R)-6-methyl-2-oxo-1-(2,2,2-trifluoroethyl)-5-(2,3,6-trifluorophenyl)piperidin-3-yl]-2′,5′-dioxo-5,7-dihydrospiro[cyclopenta[b]pyridine-6,4′-imidazolidine]-3-carboxamide]: the Ki stood at 61 pM.

As to `C[C@@H]1[C@H](c2c(F)c(F)cc(F)c2F)C[C@H](NC(=O)c2cnc3c(c2)C[C@@]2(C3)C(=O)NC(=O)N2C)C(=O)N1CC(F)(F)F` [Example 2, (6R)-3′-Methyl-N-[(3S,5S,6R)-6-methyl-2-oxo-1-(2,2,2-trifluoroethyl)-5-(2,3,5,6-tetrafluorophenyl)piperidin-3-yl]-2′,5′-dioxo-5,7-dihydrospiro[cyclopenta[b]pyridine-6,4′-imidazolidine]-3-carboxamide], the Ki came to 59 pM.

In the case of `C[C@@H]1[C@H](c2cc(F)cc(F)c2F)C[C@H](NC(=O)c2cnc3c(c2)C[C@@]2(C3)C(=O)NC(=O)N2C)C(=O)N1CC(F)(F)F` [Example 3], the Ki was 280 pM.
